Assay results as given in PubChem BioAssay AID330 (DTP/NCI, 2004).
Values joined by “and” are separate entries in the source; they are usually repeats but may differ in a detail not shown here. Equal entries are not always repeated. Inconclusive results and toxic doses are left out.

System: P388 leukemia ip, CD2F1 mice, survival T/C
Assay: NCI In Vivo Anticancer Drug Screen. Data for tumor model P388 Leukemia (intraperitoneal) in CD2F1 (CDF1) mice
Conditions: endpoint: median survival time, higher = longer survival
In short: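 Mice carrying the transplanted tumor received test compound or vehicle. Survival was recorded in each group, and the value is the treated-group measurement divided by that of the vehicle-treated control group.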

[1] = dose: 100.0 mg/kg/injection, schedule: Q01DX001 (ip), vehicle: saline with Tween-80
[2] = dose: 200.0 mg/kg/injection, schedule: Q01DX001 (ip), vehicle: saline with Tween-80
[3] = dose: 60.0 mg/kg/injection, schedule: Q01DX005 (ip), vehicle: Klucel (hydroxypropylcellulose) (HPC)
[4] = dose: 120.0 mg/kg/injection, schedule: Q01DX005 (ip), vehicle: Klucel (hydroxypropylcellulose) (HPC)
[5] = dose: 240.0 mg/kg/injection, schedule: Q01DX005 (ip), vehicle: Klucel (hydroxypropylcellulose) (HPC)
[6] = dose: 200.0 mg/kg/injection, schedule: Q01DX009 (ip), vehicle: saline with Tween-80
[7] = dose: 50.0 mg/kg/injection, schedule: Q01DX005 (ip), vehicle: saline with Tween-80
[8] = dose: 100.0 mg/kg/injection, schedule: Q01DX005 (ip), vehicle: saline with Tween-80

Nc1ncnc2c1ncn2C1OC(COS(N)(=O)=O)C(O)C1O (stereo unspecified)
T/C (dose: 0.02 mg/kg/injection, schedule: Q01DX005 (ip), vehicle: saline): 98 % of control
T/C (dose: 0.04 mg/kg/injection, schedule: Q01DX005 (ip), vehicle: saline): 103 % of control
T/C (dose: 0.09 mg/kg/injection, schedule: Q01DX005 (ip), vehicle: saline): 119 % of control
T/C (dose: 0.18 mg/kg/injection, schedule: Q01DX001 (ip), vehicle: saline): 109 % of control

CC1(C)C(/C=C\c2ccc(O)cc2)=Nc2ccccc21
T/C (dose: 3.12 mg/kg/injection, schedule: Q01DX009 (ip), vehicle: saline with Tween-80): 105 % of control
T/C (dose: 6.25 mg/kg/injection, schedule: Q01DX009 (ip), vehicle: saline with Tween-80): 100 % of control
T/C (dose: 12.5 mg/kg/injection, schedule: Q01DX009 (ip), vehicle: saline with Tween-80): 108 % of control

O=S1(=O)OC2(c3ccccc31)c1cc(Br)c(O)c(O)c1Oc1c2cc(Br)c(O)c1O
T/C (dose: 12.5 mg/kg/injection, schedule: Q01DX009 (ip), vehicle: saline): 105 % of control
T/C (dose: 25.0 mg/kg/injection, schedule: Q01DX009 (ip), vehicle: saline): 103 % of control
T/C (dose: 50.0 mg/kg/injection, schedule: Q01DX009 (ip), vehicle: saline): 88 % of control

CN1CCN2C(=O)CCC2c2cc(Cl)ccc21 (stereo unspecified)
T/C [1]: 101 % of control
T/C [2]: 101 % of control
T/C (dose: 400.0 mg/kg/injection, schedule: Q01DX001 (ip), vehicle: saline with Tween-80): 101 % of control

COc1ccc(C2OC(=N)C(=S)N2C)cc1O (stereo unspecified)
T/C [3]: 112 % of control
T/C [4]: 109 % of control
T/C [5]: 112 % of control

Cc1ccc(S(=O)(=O)F)cc1C(=O)O
T/C (dose: 60.0 mg/kg/injection, schedule: Q01DX005 (ip), vehicle: saline with Tween-80): 101 % of control
T/C (dose: 120.0 mg/kg/injection, schedule: Q01DX005 (ip), vehicle: saline with Tween-80): 93 % of control

O=C(CCc1ccc(O)c(O)c1)c1ccc(O)c(O)c1O
T/C (dose: 4.0 mg/kg/injection, schedule: Q01DX009 (ip), vehicle: saline): 111 % of control
T/C (dose: 8.0 mg/kg/injection, schedule: Q01DX009 (ip), vehicle: saline): 104 % of control
T/C (dose: 16.0 mg/kg/injection, schedule: Q01DX009 (ip), vehicle: saline): 102 % of control
T/C (dose: 32.0 mg/kg/injection, schedule: Q01DX009 (ip), vehicle: saline): 114 % of control

CC[C@@]12C[C@H]3CN(CCc4c([nH]c5ccccc45)[C@@](C(=O)OC)(c4cc5c(cc4OC)N(C)[C@H]4[C@@](O)(C(=O)OC)[C@H](OC(C)=O)[C@]6(CC)C=CCN7CC[C@]54[C@@H]76)C3O1)C2 (stereo partly specified)
T/C (dose: 0.5 mg/kg/injection, schedule: Q01DX001 (ip), vehicle: distilled water + Tween-80): 103 % of control
T/C (dose: 0.5 mg/kg/injection, schedule: Q01DX001 (ip), vehicle: water): 98 % of control
T/C (dose: 1.0 mg/kg/injection, schedule: Q01DX001 (ip), vehicle: distilled water + Tween-80): 100 % of control and 101 % of control
T/C (dose: 1.0 mg/kg/injection, schedule: Q01DX001 (ip), vehicle: water): 96 % of control
T/C (dose: 1.0 mg/kg/injection, schedule: Q01DX009 (ip), vehicle: distilled water + alcohol): 176 % of control
T/C (dose: 2.0 mg/kg/injection, schedule: Q01DX001 (ip), vehicle: distilled water + Tween-80): 100 % of control
T/C (dose: 2.0 mg/kg/injection, schedule: Q01DX001 (ip), vehicle: water): 97 % of control
T/C (dose: 2.0 mg/kg/injection, schedule: Q01DX009 (ip), vehicle: distilled water + alcohol): 176 % of control
T/C (dose: 4.0 mg/kg/injection, schedule: Q01DX001 (ip), vehicle: distilled water + Tween-80): 100 % of control and 108 % of control
T/C (dose: 4.0 mg/kg/injection, schedule: Q01DX001 (ip), vehicle: water): 105 % of control
T/C (dose: 4.0 mg/kg/injection, schedule: Q01DX009 (ip), vehicle: distilled water + alcohol): 168 % of control
T/C (dose: 8.0 mg/kg/injection, schedule: Q01DX001 (ip), vehicle: distilled water + Tween-80): 100 % of control and 93 % of control
T/C (dose: 8.0 mg/kg/injection, schedule: Q01DX001 (ip), vehicle: water): 108 % of control
T/C (dose: 16.0 mg/kg/injection, schedule: Q01DX001 (ip), vehicle: distilled water + Tween-80): 96 % of control
T/C (dose: 32.0 mg/kg/injection, schedule: Q01DX001 (ip), vehicle: distilled water + Tween-80): 102 % of control

NC(=NCCCC(NC(=O)c1ccccc1)C(=O)O)NC(=O)c1ccccc1 (stereo unspecified)
T/C (dose: 25.0 mg/kg/injection, schedule: Q01DX009 (ip), vehicle: saline with Tween-80): 108 % of control and 91 % of control
T/C (dose: 50.0 mg/kg/injection, schedule: Q01DX009 (ip), vehicle: saline with Tween-80): 100 % of control and 90 % of control
T/C (dose: 100.0 mg/kg/injection, schedule: Q01DX009 (ip), vehicle: saline with Tween-80): 93 % of control and 96 % of control
T/C [6]: 86 % of control and 97 % of control

O=C(O)/C(=C\c1c(Cl)n(-c2ccccc2)c2ccccc12)NC(=O)c1ccccc1
T/C [1]: 92 % of control
T/C [2]: 88 % of control

CC1(C)CC(OP(=S)(N2CC2)N2CC2)CC(C)(C)N1O
T/C (dose: 100.0 mg/kg/injection, schedule: Q01DX001 (ip), vehicle: Klucel (hydroxypropylcellulose) (HPC)): 160 % of control
T/C (dose: 400.0 mg/kg/injection, schedule: Q01DX001 (ip), vehicle: Klucel (hydroxypropylcellulose) (HPC)): 187 % of control

Cc1ccc(N)c(C(=O)Nc2ccc(Cl)cc2)c1
T/C [7]: 104 % of control
T/C [8]: 91 % of control
T/C (dose: 200.0 mg/kg/injection, schedule: Q01DX005 (ip), vehicle: saline with Tween-80): 92 % of control

O=C1c2ccccc2C(=O)C1NOCCCCl
T/C [3]: 100 % of control
T/C [4]: 99 % of control
T/C [5]: 101 % of control

COc1ccc(CCNC2=CC(=O)CC2)cc1OC
T/C (dose: 25.0 mg/kg/injection, schedule: Q01DX005 (ip), vehicle: saline with Tween-80): 92 % of control
T/C [7]: 89 % of control
T/C [8]: 92 % of control

O=CC(O)C(O)C(O)C(O)C(O)C#CC#CC(O)C(O)C(O)C(O)C(O)C=O (stereo unspecified)
T/C (dose: 50.0 mg/kg/injection, schedule: Q01DX005 (ip), vehicle: saline): 100 % of control
T/C (dose: 100.0 mg/kg/injection, schedule: Q01DX005 (ip), vehicle: saline): 105 % of control
T/C (dose: 200.0 mg/kg/injection, schedule: Q01DX005 (ip), vehicle: saline): 92 % of control

CCCN=c1c2c(OC)c(OC)ccc2cc2n1CCc1cc3c(cc1-2)OCO3
T/C (dose: 0.63 mg/kg/injection, schedule: Q01DX009 (ip), vehicle: water): 110 % of control
T/C (dose: 1.25 mg/kg/injection, schedule: Q01DX009 (ip), vehicle: water): 99 % of control
T/C (dose: 2.5 mg/kg/injection, schedule: Q01DX009 (ip), vehicle: water): 110 % of control
T/C (dose: 5.0 mg/kg/injection, schedule: Q01DX009 (ip), vehicle: water): 110 % of control
T/C (dose: 10.0 mg/kg/injection, schedule: Q01DX009 (ip), vehicle: water): 115 % of control

O=[N+]([O-])c1cccc2nc(Cl)ccc12
T/C (dose: 25.0 mg/kg/injection, schedule: Q01DX009 (ip), vehicle: other): 93 % of control
T/C (dose: 50.0 mg/kg/injection, schedule: Q01DX009 (ip), vehicle: other): 93 % of control
T/C (dose: 100.0 mg/kg/injection, schedule: Q01DX009 (ip), vehicle: other): 98 % of control

Nc1ccc(S(=O)(=O)c2ccc(N)cc2)cc1
T/C (dose: 6.25 mg/kg/injection, schedule: Q01DX005 (ip), vehicle: Klucel (hydroxypropylcellulose) (HPC)): 106 % of control
T/C (dose: 12.5 mg/kg/injection, schedule: Q01DX005 (ip), vehicle: Klucel (hydroxypropylcellulose) (HPC)): 98 % of control
T/C (dose: 25.0 mg/kg/injection, schedule: Q01DX005 (ip), vehicle: Klucel (hydroxypropylcellulose) (HPC)): 104 % of control
T/C (dose: 50.0 mg/kg/injection, schedule: Q01DX005 (ip), vehicle: Klucel (hydroxypropylcellulose) (HPC)): 105 % of control
T/C (dose: 100.0 mg/kg/injection, schedule: Q01DX005 (ip), vehicle: Klucel (hydroxypropylcellulose) (HPC)): 109 % of control
T/C (dose: 150.0 mg/kg/injection, schedule: Q01DX009 (ip), vehicle: saline with Tween-80): 109 % of control and 93 % of control
T/C [6]: 98 % of control and 105 % of control

COc1c2ccc(OCC=C(C)C)cc2nc2occc12
T/C (dose: 7.0 mg/kg/injection, schedule: Q01DX005 (ip), vehicle: Klucel + Tween-80): 106 % of control
T/C (dose: 14.0 mg/kg/injection, schedule: Q01DX005 (ip), vehicle: Klucel + Tween-80): 103 % of control
T/C (dose: 28.0 mg/kg/injection, schedule: Q01DX005 (ip), vehicle: Klucel + Tween-80): 99 % of control
T/C (dose: 56.0 mg/kg/injection, schedule: Q01DX005 (ip), vehicle: Klucel + Tween-80): 103 % of control
